# Several values for one entry are separate records, joined by “and”; a condition that tells them apart may be missing. Identical values can stand only once. Entries after “also recorded” stand apart in the source; their conditions may differ. Where no end group is shown, it is not given here.
# Legend:
# [1] = tested on: mutant p53-R175H; experiment: Immunoblotting of mutant p53 steady state levels in CpD cells; assay type: cell-based; settings: CpD cells transfected with DDK-tagged p53R175H; peptides 20 mM for 6 h
# Description: CpD cells overexpressing mutant p53 were transfected with DDK-tagged p53R175H mutant. Cells were then treated with indicated peptides ([…] for 6 h).
# Consequently, the effect of all thirteen peptides on mutant p53 steady state levels was tested.
# [2] = tested on: chaperone activity (Fluc-DM); experiment: Fluc-DM luciferase reporter of cellular chaperone activity; assay type: cell-based; settings: 20 μM peptide, overnight
# Description: As Frag J/J^m overexpression locks DNAJA1-Hsp70 complex, whether such interactions inhibit chaperone activity was tested. […] To understand the in vivo effects of the Frag J or different peptides in multiple cell lines including BE/EAC and p53 isogenic lines, cells were first transfected/co-transfected with Fluc-DM±Frag J constructs. Twenty-four hours post-transfection, cells were either subjected to luciferase assay or for peptide treatment studies, cells were treated with 20 μM concentrations of different peptides. After overnight incubation, cell lysates were prepared using lysis buffer provided in the luciferase assay kit in Promega luciferase assay system (cat. E1910) followed by standardized protocol as provided by the manufacturer. […] Such observation was confirmed by an in vitro chaperone activity assay using recombinant purified Hsp40-Hsp70 complex (FIG. 6D). In Fluc-DM study, loss of Fluc-DM levels following Frag J/J^m overexpression (FIG. 6E) was noted as shown using immunoblotting. Such effects were independent of p53 mutation status.
# [3] = tested on: OE19; settings: OE19 cells
# [4] = tested on: EAC cells (Flo1, OE19, and OE33); experiment: Cell viability (MTT) of EAC cell lines; assay type: cell-based
# [5] = tested on: CpD cells; experiment: Clonogenic survival of mutant p53 driven CpD cells
# Description: The effects of different siRNAs (e.g., GRAIL Iso1-1, GRAIL Iso1-2, TP53) on clonogenic survival of different BE (CpA, CpD) and EAC (Flo1, OE19, and OE33) cell lines were determined by normalizing the survival fraction of control siRNA-treated group as 1.
# For this purpose, two BE cell lines were used, CpA (with wild type p53) and CpD (carrying mutant p53). […] In brief, 3000 cells in 100 μl of complete medium were plated per well in a 96-well plate 24 h prior to peptide treatments. Cells were then either treated with vehicle (dH2O) or serial dilutions of peptides. Two days following treatments MTT labelling reagent was added, and cells were allowed to form formazan crystals for 2 h. Following, 100 μl of solubilizing agent (10% SDS in 0.01M HCl) was added per well, and plates were incubated at 37° C. overnight. The optical density (OD) of the solubilized formazan was spectrophotometrically quantified using a plate reader at 570 nm with a reference at 650 nm. Data represent the mean (±standard error, SE) performed in quadruplicate, and percent cell viabilities are plotted in semi-logarithmic scale relative to water treated control.
# [6] = tested on: DNAJA1; experiment: Peptide pull down assay with recombinant DNAJA1; assay type: binding; settings: NHS activated Sepharose beads, Western blot
# Description: Briefly, 1 mg of peptide was dissolved in 1 ml of coupling buffer (0.2 M NaHCO3, 0.5 M NaCl, pH 8.3). Peptides were conjugated to NHS-activated resin by incubating 100 μL NHS bead slurry with 200 μL peptide solution for 2 hours at room temperature (RT). Unbound sites were blocked with quenching buffer (0.5 M ethanolamine, 500 mM NaCl). Resin peptide conjugates were washed once with low pH (0.1 M acetate, 0.5 M NaCl, pH 5) and high pH buffer (0.1 M Tris HCl, pH 8.0) and equilibrated with lysis buffer 50 mM HEPES, 150 mM NaCl, 0.2% NP-40, protease inhibitor cocktail, pH 7.5. Purified HSP40 protein was procured from […] (cat #). Purified protein was diluted in lysis buffer. Approximately 40 nM protein was incubated with peptide coupled to NHS beads and incubated for 2 hours at RT. Unbound proteins were removed by centrifugation and beads were washed with washing buffer (50 mM HEPES, 300 mM NaCl, 0.2% NP-40, pH 7.5). Bound proteins were obtained by boiling beads with 1× Laemmli buffer. […] To confirm, thermal stability assays (TSA) were performed. TSA was carried out using QuantStudio™ 7 Flex Real-Time PCR System. […] The plates were covered with optical foil during the reaction in the thermal cycler. […] The Instrument was programmed in the melt curve mode with ROX reagent detection and Fast speed run. The reporter was selected as Rox and none for quencher. Each melt curve was programmed as follows: 25° C. for 15 sec, followed by increase in temperature at the speed of 0.03° C./s up to 95° C. and finally 95° C. for 15 sec. The raw data was exported to Protein Thermal Shift™ Software (Applied Biosystems) for analysis. Melting temperature was calculated using the melt curve. […] To further test functionality, an in vitro ATPase activity assay was performed using purified Hsp40 and Hsp70 proteins. […] Pep 1 was redesignated “Pep J”.
# [7] = tested on: DNAJA1; experiment: Thermal stability assay (TSA) with purified DNAJA1; assay type: binding; settings: TAT-less peptides, 0-500 μM
# Description: (§1) Briefly, 1 mg of peptide was dissolved in 1 ml of coupling buffer (0.2 M NaHCO3, 0.5 M NaCl, pH 8.3). Peptides were conjugated to NHS-activated resin by incubating 100 μL NHS bead slurry with 200 μL peptide solution for 2 hours at room temperature (RT). Unbound sites were blocked with quenching buffer (0.5 M ethanolamine, 500 mM NaCl). Resin peptide conjugates were washed once with low pH (0.1 M acetate, 0.5 M NaCl, pH 5) and high pH buffer (0.1 M Tris HCl, pH 8.0) and equilibrated with lysis buffer 50 mM HEPES, 150 mM NaCl, 0.2% NP-40, protease inhibitor cocktail, pH 7.5. Purified HSP40 protein was procured from Boston Scientific (cat #). Purified protein was diluted in lysis buffer. Approximately 40 nM protein was incubated with peptide coupled to NHS beads and incubated for 2 hours at RT. Unbound proteins were removed by centrifugation and beads were washed with washing buffer (50 mM HEPES, 300 mM NaCl, 0.2% NP-40, pH 7.5). Bound proteins were obtained by boiling beads with 1× Laemmli buffer. […] To confirm, thermal stability assays (TSA) were performed. TSA was carried out using QuantStudio™ 7 Flex Real-Time PCR System. […] The plates were covered with optical foil during the reaction in the thermal cycler. […] The Instrument was programmed in the melt curve mode with ROX reagent detection and Fast speed run. […] Melting temperature was calculated using the melt curve. […]
# [8] = molecular target: Hsp40-Hsp70 (Homo sapiens, UniProt P31689); experiment: In vitro Hsp40-Hsp70 ATPase (chaperone) activity assay; assay type: biochemical; settings: TAT-less peptides, dose-dependent
# Description: as §1
# [9] = molecular target: T1, claudin-1 (Homo sapiens, UniProt O95832); experiment: In vivo fluorescence imaging with RTS*-Cy5.5; design: species or system mouse; settings: after intravenous administration
# T1 construct: endogenous in cells; host or cells: colonic PDO implanted in mouse rectum
# T1 sequence (O95832 1-211): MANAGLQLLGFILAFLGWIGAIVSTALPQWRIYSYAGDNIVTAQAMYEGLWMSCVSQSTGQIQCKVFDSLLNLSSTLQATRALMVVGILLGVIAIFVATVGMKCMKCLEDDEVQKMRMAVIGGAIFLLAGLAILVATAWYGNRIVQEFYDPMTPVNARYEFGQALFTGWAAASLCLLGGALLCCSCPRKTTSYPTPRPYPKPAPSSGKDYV
# Description: (A) Photo of is shown of a flexible fiber-coupled side-view confocal endomicroscope. […] Confocal images show claudin-1 expression from (D) dysplasia and (E) normal colonic mucosa with subcellular resolution. Images were collected ˜1 hour post-injection of RTS*-Cy5.5. Crypt structures and individual cells can be identified. Key: crypt (arrow), tight junction (arrowhead), lumen (I), colonocyte (c), goblet cell (g), lamina propria (lp).
# This instrument has a diameter of 4.2 mm, which is small enough to perform repetitive in vivo imaging in mouse colon. The focusing optics provide a spatial resolution of 1.2 μm. A rigid wide-field endoscope was used first to collect white light (WL) and NIR fluorescence (FL) images to identify the approximate location of the implanted PDOs. Landmarks defined by the clockwise location of and distance from the anus to the distal tip of the endoscope were used to approximately locate the implanted PDOs for collection of confocal images. Tumor size and volume were estimated using a calibrated gauge passed through the instrument channel of the rigid endoscope. […] Differences in the spatial pattern of target expression between dysplasia and surrounding normal mucosa for colonic PDOs can be seen (FIG. 18D,E).
substance,measurement,setting,value
GRKKRRQRRRPQPMCKATPWRE [Pep 4],mutant p53-R175H protein levels,[1],decrease in mutant p53 levels
GRKKRRQRRRPQPMCKVPPWR [Pep 7],mutant p53-R175H protein levels,[1],decrease in mutant p53 levels
GRKKRRQRRRPQPMCKVPPWRQ [Pep 5],inhibition of chaperone activity (Fluc-DM),[2],inhibition of chaperone activity; also recorded: capable of inhibiting chaperone activity
same,mutant p53-R175H protein levels,[1],highly effective; also recorded: decrease in mutant p53 levels
same,IC50,[3],19.4 µM
same,effect on EAC cell lines,[4],relatively more resistant
same,differential activity in reducing clonogenic survival of CpD cells,[5]; CpD versus CpA,better differential activity
same,IC50,"[5]; read-out: IC50, clonogenic survival, CpD cells (mutant p53)",11.2 µM and ~11 µM
"LGIEVDVEDG [Pep 29, TAT-less Pep 12; Frag J amino acids 11-20]",interaction with purified DNAJA1 in peptide pull down,[6],no interaction
"PMCKCDILKA [Pep 26, TAT-less Pep 1; Frag J amino acids 1-10]",interaction with purified DNAJA1 in peptide pull down,[6],bound effectively
same,thermal stability assay result with DNAJA1,[7],showed the best result; also recorded: better interactor
same,inhibition of Hsp40-Hsp70 chaperoning (ATPase) activity,[8],best efficacy; also recorded: most effect agent
"PMCKVPPWRQ [Pep 27, TAT-less Pep 5]",interaction with purified DNAJA1 in peptide pull down,[6],bound effectively
"RTS*-Cy5.5: Cy5.5-labeled peptide RTSPSSR, specific for claudin-1",fluorescence intensity from implanted colonic PDO,[9],strong intensity

# From patent US20260055150A1, “GRAIL-1 PEPTIDE PRODUCTS AND METHODS” (REGENTS OF THE UNIVERSITY OF MICHIGAN, priority 2022, published 2026)
